# From PubChem BioAssay (NCI)
#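 96-well plates; 48 h exposure; 5 concentrations. Endpoints by linear interpolation between flanking doses. Not reached: highest tested concentration assigned. The concentration for 50% growth inhibition is given as GI50. TGI marks complete inhibition of growth.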
# Experiments:
# Experiment in all cases: growth of human tumour cells (NCI), 48 h
# OVCAR-3 ovarian = system: OVCAR-3 ovarian
# ACHN renal = system: ACHN renal
# M14 melanoma = system: M14 melanoma
# HL-60(TB) leukemia = system: HL-60(TB) leukemia
# EKVX NSCLC = system: EKVX NSCLC
# LOX IMVI melanoma = system: LOX IMVI melanoma
# K-562 leukemia = system: K-562 leukemia
# RPMI-8226 leukemia = system: RPMI-8226 leukemia
# SW-620 colon = system: SW-620 colon
# HCT-116 colon = system: HCT-116 colon
SMILES,TGI (OVCAR-3 ovarian) [µM],TGI (ACHN renal) [µM],TGI (M14 melanoma) [µM],TGI (HL-60(TB) leukemia) [µM],TGI (EKVX NSCLC) [µM],TGI (LOX IMVI melanoma) [µM],TGI (K-562 leukemia) [µM],TGI (RPMI-8226 leukemia) [µM],TGI (SW-620 colon) [µM],GI50 (OVCAR-3 ovarian) [µM],GI50 (HCT-116 colon) [µM],TGI (HCT-116 colon) [µM],GI50 (ACHN renal) [µM],GI50 (M14 melanoma) [µM],GI50 (HL-60(TB) leukemia) [µM],GI50 (LOX IMVI melanoma) [µM],GI50 (K-562 leukemia) [µM],GI50 (RPMI-8226 leukemia) [µM],GI50 (SW-620 colon) [µM],GI50 (EKVX NSCLC) [µM]
Clc1cc2nsnc2c(Cl)n1,33.4,> 100,29,36.2,> 100,> 100,51.9,62.5,27.8,–,–,–,–,–,–,–,–,–,–,–
C#Cc1ccc(-n2c(/C=C/c3ccc(C(F)(F)F)cc3)nc3ncccc3c2=O)cc1,3.17,3.26,4.27,6.07,–,4.29,8.71,6.28,3.76,1.67,1.63,3.02,1.71,2.07,2.07,1.89,2.96,1.39,1.92,–
CCCCCN(CCCCC)CC(O)c1cc(C)c2ccc3cc(C(C)C)ccc3c2c1 (stereo not given),3.41,3.05,3.7,4.02,3.34,3.28,4.46,4.81,3.61,1.92,1.73,3.32,1.6,1.77,2.04,1.76,2.17,2.11,1.81,1.76
O=S(=O)(NC1=NCCN1C(=S)SN1CCn2c1nsc2=S)c1ccc(OC(F)(F)F)cc1,22.9,23,> 100,7.35,19.6,22.9,19.8,> 100,24.3,7.63,6.15,22.3,10.1,25.9,2.88,8.6,4.02,6.1,9.62,5.11
O=C(Nc1ccccc1)NS(=O)(=O)c1ccc(-n2nc3c(c2-c2cccs2)Cc2ccccc2-3)cc1,> 100,38,47,–,87.2,33.6,76.2,66.4,51.2,21.8,9.13,21.3,17.6,25,–,12,14,5.49,22.9,26.1
Cn1c2ccccc2c2c(Nc3ccccc3)c3ccccc3nc21,–,65.5,33.3,–,51.1,–,> 100,30.5,58.3,–,13.2,36.1,23,15.9,–,–,5.11,3.34,17.1,14.3
Cc1nc2ccccc2c(=O)n1-c1ccccc1I,> 100,> 100,> 100,> 100,> 100,–,> 100,> 100,> 100,–,–,> 100,–,–,–,–,–,–,–,–
O=C(/C=C/c1ccccc1)NC1C=Nc2ccc(Cl)cc2NC1=O (stereo not given),56.4,> 100,65.6,30.3,> 100,55.9,59,–,24.2,–,–,85.7,–,–,–,–,–,–,–,–
CN1C(=O)C(C)(C)C2(SC(C)(C)C2(C)C)N(C)C1=S (stereo not given),> 100,> 100,> 100,> 100,> 100,–,> 100,> 100,> 100,–,–,> 100,–,–,–,–,–,–,–,–
CC1(C)CCc2c(c3c(c4c(=O)c(O)c(-c5ccc(O)cc5)oc24)OC(C)(C)CC3)O1,> 100,> 100,> 100,–,> 100,> 100,> 100,> 100,> 100,49.9,57.6,> 100,48.9,> 100,–,90.5,> 100,> 100,> 100,34.5
C/C(CC(=O)CCC(=O)Nc1cccc(C(F)(F)F)c1)=N\NC(=O)NN,> 100,> 100,> 100,> 100,> 100,–,> 100,> 100,> 100,–,–,> 100,–,–,–,–,–,–,–,–
COC(=O)CC1CCN(C#N)CC1CC[N+](=O)[O-] (stereo not given),> 100,> 100,> 100,> 100,–,–,> 100,> 100,> 100,–,–,> 100,–,–,–,–,–,–,–,–
Cc1ccc(NC2=C(Cl)C(=O)N(Cc3ccccc3)C2=O)cc1O,70,–,> 100,> 100,52.6,63.4,> 100,47.5,> 100,20.6,37.7,> 100,–,51.4,6.45,18,17.8,9.26,39.2,17.8
N#CC(c1ccc(Cl)cc1)c1cccc(C(C#N)c2ccc(Cl)cc2)n1 (stereo not given),> 100,> 100,> 100,> 100,> 100,–,> 100,> 100,> 100,–,–,–,–,–,–,–,–,–,–,–
CC1(c2ccc(F)cc2)C(C#N)C(=O)NC(=O)C1C#N (stereo not given),> 100,> 100,> 100,> 100,> 100,> 100,> 100,> 100,> 100,–,–,–,–,–,–,–,–,–,–,–
Cc1ccc(N=Nc2ccc(N(CCC#N)CCC#N)cc2C)c(Br)c1,> 100,> 100,92.3,65.7,> 100,–,> 100,35.8,> 100,–,–,–,–,–,–,–,–,–,–,–
CN(C)C(=N)c1ccccc1,> 100,–,> 100,> 100,–,> 100,–,–,> 100,–,–,> 100,–,–,–,–,–,–,–,–
